Drawing on patent US11319299B2, “Substituted carboxamides as inhibitors of WDR5 protein-protein binding” (PROPELLON THERAPEUTICS INC., priority 2016, dated 2022), this text covers Kd for 26 compounds.

For this assay, the target named is WDR5 (Homo sapiens (Human), UniProt P61964). In words: Surface Plasmon Resonance (SPR) assay, KD and residence time. The class given is binding. To be noted: surface plasmon resonance (SPR) assay; read-out: WDR5 binding affinity (KD). On the technique in general: Surface plasmon resonance follows binding to a sensor surface in real time, without labels.

As for `C[C@@H]1CN(c2cc(F)c(-c3cnc(N(C)C)nc3)cc2NC(=O)c2c[nH]c(=O)cc2C(F)(F)F)C[C@H](C)N1C` [Example 103, N-[5-[2-(dimethylamino)pyrimidin-5-yl]-4-fluoro-2-[(3R,5S)-3,4,5-trimethylpiperazin-1-yl]phenyl]-6-oxo-4-(trifluoromethyl)-1H-pyridine-3-carboxamide], the equilibrium dissociation constant (Kd) worked out at 0.168 nM.
The result for `COc1cc(-c2cc(NC(=O)c3c[nH]c(=O)cc3C(F)(F)F)c(N3C[C@@H](C)N(C)[C@@H](C)C3)cc2F)cnc1OC` [Example 104, N-[5-(5,6-dimethoxypyridin-3-yl)-4-fluoro-2-[(3R,5S)-3,4,5-trimethylpiperazin-1-yl]phenyl]-6-oxo-4-(trifluoromethyl)-1H-pyridine-3-carboxamide] reads 2.41 nM; that for `C[C@@H]1CN(c2cc(F)c(-c3cnc(N4CCOCC4)nc3)cc2NC(=O)c2cccc3c2OCO3)C[C@H](C)N1C` [Example 105, N-[4-fluoro-5-(2-morpholin-4-ylpyrimidin-5-yl)-2-[(3R,5S)-3,4,5-trimethylpiperazin-1-yl]phenyl]-1,3-benzodioxole-4-carboxamide], 466 nM.
As for `COc1ccc(C(=O)Nc2cc(-c3cnc(N4CCOCC4)nc3)c(F)cc2N2C[C@@H](C)N(C)[C@@H](C)C2)cc1` [Example 106, N-[4-fluoro-5-(2-morpholin-4-ylpyrimidin-5-yl)-2-[(3R,5S)-3,4,5-trimethylpiperazin-1-yl]phenyl]-4-methoxybenzamide], the figure is 5400 nM; as for `C[C@@H]1CN(c2cc(F)c(-c3cnc(N4CCOCC4)nc3)cc2NC(=O)c2ccc(F)cc2)C[C@H](C)N1C` [Example 107, 4-fluoro-N-[4-fluoro-5-(2-morpholin-4-ylpyrimidin-5-yl)-2-[(3R,5S)-3,4,5-trimethylpiperazin-1-yl]phenyl]benzamide], 137 nM; as for `C[C@@H]1CN(c2cc(F)c(-c3cnc(N4CCOCC4)nc3)cc2NC(=O)c2ccccc2Cl)C[C@H](C)N1C` [Example 109, 2-chloro-N-[4-fluoro-5-(2-morpholin-4-ylpyrimidin-5-yl)-2-[(3R,5S)-3,4,5-trimethylpiperazin-1-yl]phenyl]benzamide], 175 nM.
Take `COc1cccc(C(=O)Nc2cc(-c3cnc(N4CCOCC4)nc3)c(F)cc2N2C[C@@H](C)N(C)[C@@H](C)C2)c1F` [Example 110, 2-fluoro-N-[4-fluoro-5-(2-morpholin-4-ylpyrimidin-5-yl)-2-[(3R,5S)-3,4,5-trimethylpiperazin-1-yl]phenyl]-3-methoxybenzamide]: the Kd amounted to 1730 nM.
In the case of `C[C@@H]1CN(c2cc(F)c(-c3cnc(N4CCOCC4)nc3)cc2NC(=O)c2ccc(F)c(F)c2)C[C@H](C)N1C` [Example 111, 3,4-difluoro-N-[4-fluoro-5-(2-morpholin-4-ylpyrimidin-5-yl)-2-[(3R,5S)-3,4,5-trimethylpiperazin-1-yl]phenyl]benzamide], the Kd was determined as 70.6 nM.
The result for `COc1ccc(-c2cc(NC(=O)c3c[nH]c(=O)cc3C(F)(F)F)c(N3C[C@@H](C)N(C)[C@@H](C)C3)cc2F)cc1` [Example 112, N-[4-fluoro-5-(4-methoxyphenyl)-2-[(3R,5S)-3,4,5-trimethylpiperazin-1-yl]phenyl]-6-oxo-4-(trifluoromethyl)-1H-pyridine-3-carboxamide] reads 2.44 nM; that for `C[C@@H]1CN(c2cc(F)c(-c3ccc(OCC4CC4)cc3)cc2NC(=O)c2c[nH]c(=O)cc2C(F)(F)F)C[C@H](C)N1C` [Example 113, N-[5-[4-(cyclopropylmethoxy)phenyl]-4-fluoro-2-[(3R,5S)-3,4,5-trimethylpiperazin-1-yl]phenyl]-6-oxo-4-(trifluoromethyl)-1H-pyridine-3-carboxamide], 0.858 nM.
The result for `C[C@@H]1CN(c2cc(F)c(-c3ccc(N4CCCC4)cc3)cc2NC(=O)c2c[nH]c(=O)cc2C(F)(F)F)C[C@H](C)N1C` [Example 114, N-[4-fluoro-5-(4-pyrrolidin-1-ylphenyl)-2-[(3R,5S)-3,4,5-trimethylpiperazin-1-yl]phenyl]-6-oxo-4-(trifluoromethyl)-1H-pyridine-3-carboxamide] reads 4.06 nM; that for `CC(=O)Nc1cccc(C(=O)Nc2cc(-c3cnc(N4CCOCC4)nc3)c(F)cc2N2C[C@@H](C)N(C)[C@@H](C)C2)c1` [Example 115, 3-acetamido-N-[4-fluoro-5-(2-morpholin-4-ylpyrimidin-5-yl)-2-[(3R,5S)-3,4,5-trimethylpiperazin-1-yl]phenyl]benzamide], more than 200 nM; that for `C[C@@H]1CN(c2cc(F)c(-c3cccc(CN(C)C4COC4)c3)cc2NC(=O)c2c[nH]c(=O)cc2C(F)(F)F)C[C@H](C)N1C` [Example 118, N-[4-fluoro-5-[3-[[methyl(oxetan-3-yl)amino]methyl]phenyl]-2-[(3R,5S)-3,4,5-trimethylpiperazin-1-yl]phenyl]-6-oxo-4-(trifluoromethyl)-1H-pyridine-3-carboxamide], 4.53 nM.
The result for `C[C@@H]1CN(c2cc(F)c(-c3cccc(CN4CCC(F)CC4)c3)cc2NC(=O)c2c[nH]c(=O)cc2C(F)(F)F)C[C@H](C)N1C` [Example 119, N-[4-fluoro-5-[3-[(4-fluoropiperidin-1-yl)methyl]phenyl]-2-[(3R,5S)-3,4,5-trimethylpiperazin-1-yl]phenyl]-6-oxo-4-(trifluoromethyl)-1H-pyridine-3-carboxamide] reads 5.12 nM; that for `O=C(Nc1cc(-c2cnc(N3CCOCC3)nc2)c(F)cc1N1CCN2CCOCC2C1)c1c[nH]c(=O)cc1C(F)(F)F` (centres unmarked) [Example 120, N-[2-(3,4,6,7,9,9a-hexahydro-1H-pyrazino[2,1-c][1,4]oxazin-8-yl)-4-fluoro-5-(2-morpholin-4-ylpyrimidin-5-yl)phenyl]-6-oxo-4-(trifluoromethyl)-1H-pyridine-3-carboxamide], more than 200 nM.
In the case of `C[C@@H]1CN(c2cc(F)c(-c3cnc(O)c(C#N)c3)cc2NC(=O)c2c[nH]c(=O)cc2C(F)(F)F)C[C@H](C)N1C` [Example 123, N-[5-(5-cyano-6-hydroxypyridin-3-yl)-4-fluoro-2-[(3R,5S)-3,4,5-trimethylpiperazin-1-yl]phenyl]-6-oxo-4-(trifluoromethyl)-1H-pyridine-3-carboxamide], the Kd stood at 9.88 nM.
As for `C[C@@H]1CN(c2cc(F)c(-c3ccc(N4CCOCC4)c(F)c3)cc2NC(=O)c2c[nH]c(=O)cc2C(F)(F)F)C[C@H](C)N1C` [Example 124, N-[4-fluoro-5-(3-fluoro-4-morpholin-4-ylphenyl)-2-[(3R,5S)-3,4,5-trimethylpiperazin-1-yl]phenyl]-6-oxo-4-(trifluoromethyl)-1H-pyridine-3-carboxamide], the figure is 0.439 nM; as for `C[C@@H]1CN(c2cc(F)c(-c3cccc(OCC4CC4)c3)cc2NC(=O)c2c[nH]c(=O)cc2C(F)(F)F)C[C@H](C)N1C` [Example 125, N-[5-[3-(cyclopropylmethoxy)phenyl]-4-fluoro-2-[(3R,5S)-3,4,5-trimethylpiperazin-1-yl]phenyl]-6-oxo-4-(trifluoromethyl)-1H-pyridine-3-carboxamide], 10.9 nM; as for `C[C@@H]1CN(c2cc(F)c(-c3cnc(N4CCOCC4)nc3)cc2NC(=O)c2cccc(N(C)C)c2)C[C@H](C)N1C` [Example 126, 3-(dimethylamino)-N-[4-fluoro-5-(2-morpholin-4-ylpyrimidin-5-yl)-2-[(3R,5S)-3,4,5-trimethylpiperazin-1-yl]phenyl]benzamide], 3500 nM.
As for `C[C@@H]1CN(c2cc(F)c(-c3cnc(N4CCOCC4)nc3)cc2NC(=O)c2cocn2)C[C@H](C)N1C` [Example 127, N-[4-fluoro-5-(2-morpholin-4-ylpyrimidin-5-yl)-2-[(3R,5S)-3,4,5-trimethylpiperazin-1-yl]phenyl]-1,3-oxazole-4-carboxamide], the figure is more than 200 nM; as for `CC(C)Oc1ncc(-c2cc(NC(=O)c3c[nH]c(=O)cc3C(F)(F)F)c(N3C[C@@H](C)N(C)[C@@H](C)C3)cc2F)cn1` [Example 130, N-[4-fluoro-5-(2-propan-2-yloxypyrimidin-5-yl)-2-[(3R,5S)-3,4,5-trimethylpiperazin-1-yl]phenyl]-6-oxo-4-(trifluoromethyl)-1H-pyridine-3-carboxamide], 0.656 nM.
As for `C[C@@H]1CN(c2cc(F)c(-c3ccc(C#N)nc3)cc2NC(=O)c2c[nH]c(=O)cc2C(F)(F)F)C[C@H](C)N1C` [Example 131, N-[5-(6-cyanopyridin-3-yl)-4-fluoro-2-[(3R,5S)-3,4,5-trimethylpiperazin-1-yl]phenyl]-6-oxo-4-(trifluoromethyl)-1H-pyridine-3-carboxamide], the figure is 2.43 nM; as for `Cc1cc(-c2cc(NC(=O)c3c[nH]c(=O)cc3C(F)(F)F)c(N3C[C@@H](C)N(C)[C@@H](C)C3)cc2F)cnc1C#N` [Example 132, N-[5-(6-cyano-5-methylpyridin-3-yl)-4-fluoro-2-[(3R,5S)-3,4,5-trimethylpiperazin-1-yl]phenyl]-6-oxo-4-(trifluoromethyl)-1H-pyridine-3-carboxamide], 1.4 nM.
As for `C[C@@H]1CN(c2cc(F)c(-c3ccnc(C#N)c3)cc2NC(=O)c2c[nH]c(=O)cc2C(F)(F)F)C[C@H](C)N1C` [Example 133, N-[5-(2-cyanopyridin-4-yl)-4-fluoro-2-[(3R,5S)-3,4,5-trimethylpiperazin-1-yl]phenyl]-6-oxo-4-(trifluoromethyl)-1H-pyridine-3-carboxamide], the Kd stood at 1.33 nM.
The result for `COc1cc(-c2cc(NC(=O)c3c[nH]c(=O)cc3C(F)(F)F)c(N3C[C@@H](C)N(C)[C@@H](C)C3)cc2F)cc(C(F)(F)F)n1` [Example 134, N-[4-fluoro-5-[2-methoxy-6-(trifluoromethyl)pyridin-4-yl]-2-[(3R,5S)-3,4,5-trimethylpiperazin-1-yl]phenyl]-6-oxo-4-(trifluoromethyl)-1H-pyridine-3-carboxamide] reads 1.01 nM; that for `COc1cc(-c2cc(NC(=O)c3c[nH]c(=O)cc3C(F)(F)F)c(N3C[C@@H](C)N(C)[C@@H](C)C3)cc2F)cc(C)n1` [Example 135, N-[4-fluoro-5-(2-methoxy-6-methylpyridin-4-yl)-2-[(3R,5S)-3,4,5-trimethylpiperazin-1-yl]phenyl]-6-oxo-4-(trifluoromethyl)-1H-pyridine-3-carboxamide], 2.81 nM.

The term Kd denotes the free concentration of one partner at which half of the binding sites on the other are occupied at equilibrium, for simple one-to-one binding.
